Assays:
[1] = Flavourist taste panel, solution B (with compound) rated against reference solution A; format: in vivo, human; details: 10 ppm compound in 0.5% NaCl and 0.03% MSG, vs solution A; scale -3 (much lower than base) to 3 (much higher); average of 4 flavourists
Method: Two solutions were prepared:
The samples were tasted by a small group of flavourists (2 male, 2 female, aged between 30 and 60). The intensity of the umami and salt taste of solution B was compared with that of the reference (solution A) and rated according to the following intensity scale:
The results (average of ratings given by the flavourists) were: […]

[2] = Flavourist comparison of bouillon with and without compound; format: in vivo, human; details: 200 ppm in bouillon; 4 flavourists
Method: A bouillon mix was prepared from 155.0 g of sodium chloride, 157.0 g of dextrose monohydrate (ex Tapioca), 0.2 g of celery oleoresin, 0.3 g of oleoresin turmeric Vegex, 0.2 g of oleoresin coriander seed, 444.8 g maltodextrin 5-8 DE, 40.0 g vegetable oil soya bean refined, 30.0 g yeast standard light, 4.0 g of onion powder, 4.0 g of garlic powder, 0.5 g of white pepper and 164.0 g of potato starch.
32 g of the well-mixed ingredients was added to 1 L of boiling water and stirred until completely dissolved.
A small group of flavourists (2 male, 2 female) compared the taste of the reference bouillon with that of a batch of the same bouillon containing 200 ppm of DL-threo-3-methylglutamic acid.

[3] = Flavourist comparison of white sauce with and without compound; format: in vivo, human; details: 200 ppm in white sauce; 4 flavourists
Method: A white sauce mix was prepared from 380 g of modified starch Prejel, 200 g of whey powder Esprion 300, 200 g of fat powder (ex DMV), 115 g of sodium chloride, 85.3 g of maltodextrin 14, 3 g of onion powder, 0.2 g of curcuma extract powder (ex turmeric), 1.5 g of white pepper and 15 g of probase high impact.
80 g of the well-mixed ingredients was added to 1 L of boiling water and stirred well.
A small group of flavourists (2 male, 2 female) compared the taste of the reference white sauce with that of a batch of the same white sauce containing 200 ppm of DL-threo-3-methylglutamic acid.

[4] = Flavourist comparison of Béchamel sauce with cheese with and without compound; format: in vivo, human; details: 200 ppm in Béchamel sauce with cheese; 4 flavourists
Method: A Béchamel sauce with cheese was prepared from 70 g of butter, 50 g of flower, 1000 g of milk, 5 g of sodium chloride, 0.3 g of MSG, 0.15 g of nutmeg powder, 0.25 g of black pepper and 80 g of cheese powder. A blanc roux was prepared from the butter and flower before adding the other ingredients.
A small group of flavourists (2 male, 2 female) compared the taste of the reference Béchamel sauce with cheese with that of a batch of the same Béchamel sauce with cheese containing 200 ppm of DL-threo-3-methylglutamic acid.

[5] = at concentrations comparable to MSG; cited from earlier work

SMILES	Intensity Taste Salt (NaCl) [1]	Intensity Taste Umami [1]	Taste of test bouillon compared with reference bouillon [2]	Taste of test white sauce compared with reference sauce [3]	Taste of test Béchamel sauce with cheese compared with reference [4]	Umami taste [5]
CC(CC(=O)O)C(N)C(=O)O (racemic) [DL-threo-3-methylglutamic acid, DL-threo-3-methylglutamic Acid]	0.33	1.00	more umami, had an enhanced body of salt and was more salivating	fuller and slightly more umami	richer and more longlasting	
N[C@@H](CC(=O)O)C(=O)O [aspartic acid]						hardly any umami taste
CCCCCC(CC(=O)O)C(N)C(=O)O (stereo not shown) [2-amino-3-pentylpentanedioic acid, 2-amino-3-pentylpentanedioic Acid]	0.00	0.33				
CCCC(CC(=O)O)C(N)C(=O)O (stereo not shown) [2-amino-3-propylpentanedioic acid, 2-amino-3-propylpentanedioic Acid]	0.33	0.33				

Source: US20140272066A1, “GLUTAMIC ACID DERIVATIVES” (Givaudan S.A., priority 2011, published 2014)
